Here are results for one compound from publication PMC6515479, “An Investigation on Glucuronidation Metabolite Identification, Isozyme Contribution, and Species Differences of GL-V9 In Vitro and In Vivo” (Molecules, 2019).

One series deals with T1, rUGT1A3 (Homo sapiens, UniProt P35503).
T1 construct: purchased Corning (Woburn, MA, USA)
T1 sequence (P35503 29-534): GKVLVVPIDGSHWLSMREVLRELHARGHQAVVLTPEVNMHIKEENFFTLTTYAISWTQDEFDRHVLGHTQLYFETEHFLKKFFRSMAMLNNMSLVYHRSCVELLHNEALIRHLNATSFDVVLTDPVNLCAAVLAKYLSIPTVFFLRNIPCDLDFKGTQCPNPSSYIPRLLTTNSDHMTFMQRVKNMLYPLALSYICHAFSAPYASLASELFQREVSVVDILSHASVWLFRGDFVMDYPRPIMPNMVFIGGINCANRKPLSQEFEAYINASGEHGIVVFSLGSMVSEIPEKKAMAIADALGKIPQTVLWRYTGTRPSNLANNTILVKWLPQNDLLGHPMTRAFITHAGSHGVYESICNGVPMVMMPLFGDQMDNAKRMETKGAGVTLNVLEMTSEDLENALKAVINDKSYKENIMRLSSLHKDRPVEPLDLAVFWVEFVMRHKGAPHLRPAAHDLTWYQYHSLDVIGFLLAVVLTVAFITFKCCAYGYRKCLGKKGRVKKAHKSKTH
The experiment in a line: UGT phenotyping of GL-V9 glucuronidation, rUGT1A3. The format is in vitro ADME. The settings on record: GL-V9 0.5, 1, 5 μM, 37 °C, 1 h. As for the experimental part:
(§1) The composition of the incubation system (200 μL) contained liver microsomes of different species (0.1 mg protein/mL), 5 mM saccharolactone (D-saccharic acid 1,4-lactone monohydrate), 10 mM MgCl2, alamethicin (50 μg/mg protein), Tris-HCl buffer (50 mM, pH 7.4) and GL-V9 (1 μM). After 5 min of preincubation at 37 °C, UDPGA (5 mM) was added to initiate the phase II reaction. Control incubation samples were performed without UDPGA or without substrates (GL-V9). The reaction was terminated by addition of ice-cold methanol (three volumes) after incubation for 1 h at 37 °C. Samples were vortexed, centrifuged at 21,500× g for 10 min and then stored at 4 °C until HPLC-UV-TripleTOF analysis. To confirm that these metabolites are conjugates resulting from glucuronidation reaction, enzymatic hydrolysis of samples was processed. β-glucuronidase (100 KU, Sigma) was added and the hydrolysis was performed overnight at 37 °C. The control samples were carried out without β-glucuronidase under the same condition.
(§2) Twelve human recombinant UGT isoforms (rUGT1A1, rUGT1A3, rUGT1A4, rUGT1A6, rUGT1A7, rUGT1A8, rUGT1A9, rUGT1A10, rUGT2B4, rUGT2B7, rUGT2B15, and rUGT2B17) were employed to identify the main UGT enzyme(s) responsible for glucuronidation of GL-V9 under mixture conditions as described in Section 4.3. […]

The target in a further series is T2, rUGT2B17 (Homo sapiens, UniProt O75795).
T2 construct: purchased Corning (Woburn, MA, USA)
T2 sequence (O75795 24-530): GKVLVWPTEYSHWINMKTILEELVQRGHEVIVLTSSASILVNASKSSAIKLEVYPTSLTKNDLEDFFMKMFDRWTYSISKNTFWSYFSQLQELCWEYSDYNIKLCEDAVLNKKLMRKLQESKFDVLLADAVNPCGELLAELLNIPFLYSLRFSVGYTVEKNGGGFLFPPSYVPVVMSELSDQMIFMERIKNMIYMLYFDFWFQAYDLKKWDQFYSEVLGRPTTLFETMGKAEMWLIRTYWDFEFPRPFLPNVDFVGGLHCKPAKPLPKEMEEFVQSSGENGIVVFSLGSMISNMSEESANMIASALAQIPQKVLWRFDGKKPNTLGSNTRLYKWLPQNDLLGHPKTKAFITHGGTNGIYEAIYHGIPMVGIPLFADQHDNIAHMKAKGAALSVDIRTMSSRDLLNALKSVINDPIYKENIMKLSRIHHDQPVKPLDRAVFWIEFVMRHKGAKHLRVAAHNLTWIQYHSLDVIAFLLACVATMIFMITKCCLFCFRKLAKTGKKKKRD
In words: UGT phenotyping of GL-V9 glucuronidation, rUGT2B17. The format is in vitro ADME. The settings on record: GL-V9 0.5, 1, 5 μM, 37 °C, 1 h. As to the method: as §1, §2

The conditions of series [1]: cited from earlier work.
A further series concerns the target T3, rUGT1A10 (Homo sapiens, UniProt Q9HAW8).
T3 construct: purchased Corning (Woburn, MA, USA)
T3 sequence (Q9HAW8 26-530): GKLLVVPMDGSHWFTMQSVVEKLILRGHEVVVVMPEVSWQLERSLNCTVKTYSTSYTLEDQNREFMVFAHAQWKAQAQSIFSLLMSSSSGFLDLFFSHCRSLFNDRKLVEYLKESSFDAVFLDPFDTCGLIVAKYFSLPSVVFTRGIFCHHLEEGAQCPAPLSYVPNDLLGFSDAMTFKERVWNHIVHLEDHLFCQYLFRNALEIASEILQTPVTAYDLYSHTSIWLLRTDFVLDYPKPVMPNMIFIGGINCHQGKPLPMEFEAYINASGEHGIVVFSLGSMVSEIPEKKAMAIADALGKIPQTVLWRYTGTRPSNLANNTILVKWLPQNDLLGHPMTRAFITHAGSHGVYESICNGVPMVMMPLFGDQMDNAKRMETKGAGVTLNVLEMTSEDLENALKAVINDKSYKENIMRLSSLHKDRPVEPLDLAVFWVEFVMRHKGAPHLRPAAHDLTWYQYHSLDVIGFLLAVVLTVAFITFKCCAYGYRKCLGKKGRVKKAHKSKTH
The experiment in a line: UGT phenotyping of GL-V9 glucuronidation, rUGT1A10. The format is in vitro ADME. The settings on record: GL-V9 0.5, 1, 5 μM, 37 °C, 1 h. As to the method:
as §1, §2

Setting [2] is: GL-V9 in rat plasma, oral (gavage) GL-V9 50 mg/kg, n=6, mean ± SD.
Setting [3] is: GL-V9 in rats, oral GL-V9 50 mg/kg, n=6, mean ± SD.

As to `COc1c(OCCCCN2CCCC2)cc(O)c2c(=O)cc(-c3ccccc3)oc12` [GL-V9], the “Metabolism rate (glucuronidation)” value at rUGT1A3 was “too low to be biologically relevant”. For the same compound, the “Catalytic activity in the production of 5-O-glucuronide GL-V9” value at rUGT2B17 is “did not show apparent catalytic activity”. In series [1] (setting [2]), the exposure AUC(0-t) (usually exposure summed from dosing to a finite time, without extrapolation to infinity) is 1212.06 ± 246.47 ng·h/mL; the peak concentration (Cmax) (usually the highest concentration seen after dosing) is given as 167.33 ± 50.05 ng/mL; the T1/2 was 3.08 ± 1.05 h. The total exposure AUC(0-inf) – broadly, total exposure, with the tail of the curve extrapolated – in series [1] (GL-V9 in rat plasma, oral GL-V9 50 mg/kg, n=6, mean ± SD) was 1256.04 ± 271.82 ng·h/mL. Also, the Tmax (usually the time from dosing to the highest level) in series [1] (GL-V9 in rat plasma, oral GL-V9 50 mg/kg, n=6) was 0.31 to 0.77 h. Further, the F in series [1] (GL-V9 in rats, oral GL-V9 50 mg/kg) is recorded as 8.54%. Further, in series [1] (setting [3]), the CL was 689.7 ± 147 mL/min/kg, the MRT0-t is reported as 7.70 ± 0.91 h and the Vd was 181.06 ± 63.57 L/kg. In addition, at rUGT1A10, the “Metabolism rate (glucuronidation)” value is “too low to be biologically relevant”.
